Reference: EP0427693A1, “Method for azide displacement of alpha-triflates of 1,5-lactones” (MONSANTO COMPANY, priority 1989, dated 1991)

Columns and labels:
Assay type in all cases: biochemical
[1] = target: T1, human liver α-mannosidase (Lysosomal) (Homo sapiens, UniProt O00754); test: Human liver glycosidase inhibition, lysosomal α-mannosidase; conditions: 1 mM concentration of inhibitor; hydrolysis of 4-umbelliferyl pyrranosides; read-out: % Inhibition α-Mannosidases Lysosomal
T1 construct: from tissue; host or cells: human liver
T1 sequence (O00754 50-1011): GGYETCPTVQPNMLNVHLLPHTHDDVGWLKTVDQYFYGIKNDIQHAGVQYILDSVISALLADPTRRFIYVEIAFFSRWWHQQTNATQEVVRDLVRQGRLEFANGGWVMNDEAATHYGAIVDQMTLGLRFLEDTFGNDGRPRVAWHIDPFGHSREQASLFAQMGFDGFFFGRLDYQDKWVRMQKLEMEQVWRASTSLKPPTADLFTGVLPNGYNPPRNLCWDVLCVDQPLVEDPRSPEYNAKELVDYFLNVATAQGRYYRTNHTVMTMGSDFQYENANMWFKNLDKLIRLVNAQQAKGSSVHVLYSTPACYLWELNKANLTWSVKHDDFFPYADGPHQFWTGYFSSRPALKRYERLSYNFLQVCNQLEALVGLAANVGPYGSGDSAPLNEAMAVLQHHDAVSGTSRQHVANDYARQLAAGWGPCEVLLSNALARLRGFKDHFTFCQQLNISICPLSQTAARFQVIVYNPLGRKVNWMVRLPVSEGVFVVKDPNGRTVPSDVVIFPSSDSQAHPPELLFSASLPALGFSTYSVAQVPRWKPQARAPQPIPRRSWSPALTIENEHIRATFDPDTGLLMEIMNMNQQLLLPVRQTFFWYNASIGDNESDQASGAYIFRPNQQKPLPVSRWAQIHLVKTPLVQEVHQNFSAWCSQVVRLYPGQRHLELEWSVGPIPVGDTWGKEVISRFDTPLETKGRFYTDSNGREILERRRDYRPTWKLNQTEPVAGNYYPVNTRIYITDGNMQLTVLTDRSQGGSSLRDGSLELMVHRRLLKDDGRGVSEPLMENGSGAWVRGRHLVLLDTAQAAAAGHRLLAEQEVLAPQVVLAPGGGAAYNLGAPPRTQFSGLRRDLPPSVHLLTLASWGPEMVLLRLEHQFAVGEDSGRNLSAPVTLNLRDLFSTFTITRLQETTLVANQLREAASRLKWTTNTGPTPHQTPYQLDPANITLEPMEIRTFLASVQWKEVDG

[2] = target: T2, human liver α-mannosidase (Neutral) (Homo sapiens, UniProt Q9NTJ4); test: Human liver glycosidase inhibition, neutral α-mannosidase; conditions: 1 mM concentration of inhibitor; hydrolysis of 4-umbelliferyl pyrranosides; read-out: % Inhibition α-Mannosidases Neutral
T2 construct: from tissue; host or cells: human liver
T2 sequence (Q9NTJ4 1-1040): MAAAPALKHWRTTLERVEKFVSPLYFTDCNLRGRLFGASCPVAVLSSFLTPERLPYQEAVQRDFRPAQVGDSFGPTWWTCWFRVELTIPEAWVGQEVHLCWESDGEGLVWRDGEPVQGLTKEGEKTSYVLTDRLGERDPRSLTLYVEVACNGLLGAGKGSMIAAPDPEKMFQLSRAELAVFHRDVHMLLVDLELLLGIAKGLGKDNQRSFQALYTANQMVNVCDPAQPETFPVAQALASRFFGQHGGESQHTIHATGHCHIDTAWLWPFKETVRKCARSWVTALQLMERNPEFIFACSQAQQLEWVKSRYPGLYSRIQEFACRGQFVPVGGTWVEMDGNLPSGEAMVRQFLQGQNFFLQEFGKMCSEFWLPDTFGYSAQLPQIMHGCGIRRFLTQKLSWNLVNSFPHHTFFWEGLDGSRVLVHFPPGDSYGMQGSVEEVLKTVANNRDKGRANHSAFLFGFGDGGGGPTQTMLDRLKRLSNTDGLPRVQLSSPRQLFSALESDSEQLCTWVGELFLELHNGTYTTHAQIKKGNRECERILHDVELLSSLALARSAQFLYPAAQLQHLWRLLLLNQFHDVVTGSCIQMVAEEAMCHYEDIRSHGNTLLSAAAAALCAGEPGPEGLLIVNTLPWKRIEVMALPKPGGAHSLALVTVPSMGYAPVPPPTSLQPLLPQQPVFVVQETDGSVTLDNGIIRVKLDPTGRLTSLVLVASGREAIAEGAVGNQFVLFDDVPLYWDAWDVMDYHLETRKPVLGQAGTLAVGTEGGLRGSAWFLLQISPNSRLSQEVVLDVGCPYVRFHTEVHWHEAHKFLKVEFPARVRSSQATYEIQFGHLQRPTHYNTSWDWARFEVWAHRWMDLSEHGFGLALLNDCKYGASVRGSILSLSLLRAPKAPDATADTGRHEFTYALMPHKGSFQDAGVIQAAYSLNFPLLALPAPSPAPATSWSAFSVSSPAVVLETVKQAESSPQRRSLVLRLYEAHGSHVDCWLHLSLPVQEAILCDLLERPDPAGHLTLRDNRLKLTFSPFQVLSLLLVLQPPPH

[3] = tested on: human α-mannosidases; test: Human liver glycosidase inhibition, α-mannosidases; conditions: human liver glycosidases
[4] = target: T3, human liver α-mannosidase (Golgi II) (Homo sapiens, UniProt Q16706); test: Human liver glycosidase inhibition, Golgi II α-mannosidase; conditions: 1 mM concentration of inhibitor; hydrolysis of 4-umbelliferyl pyrranosides; read-out: % Inhibition α-Mannosidases Golgi II
T3 construct: from tissue; host or cells: human liver
T3 sequence (Q16706 1-1144): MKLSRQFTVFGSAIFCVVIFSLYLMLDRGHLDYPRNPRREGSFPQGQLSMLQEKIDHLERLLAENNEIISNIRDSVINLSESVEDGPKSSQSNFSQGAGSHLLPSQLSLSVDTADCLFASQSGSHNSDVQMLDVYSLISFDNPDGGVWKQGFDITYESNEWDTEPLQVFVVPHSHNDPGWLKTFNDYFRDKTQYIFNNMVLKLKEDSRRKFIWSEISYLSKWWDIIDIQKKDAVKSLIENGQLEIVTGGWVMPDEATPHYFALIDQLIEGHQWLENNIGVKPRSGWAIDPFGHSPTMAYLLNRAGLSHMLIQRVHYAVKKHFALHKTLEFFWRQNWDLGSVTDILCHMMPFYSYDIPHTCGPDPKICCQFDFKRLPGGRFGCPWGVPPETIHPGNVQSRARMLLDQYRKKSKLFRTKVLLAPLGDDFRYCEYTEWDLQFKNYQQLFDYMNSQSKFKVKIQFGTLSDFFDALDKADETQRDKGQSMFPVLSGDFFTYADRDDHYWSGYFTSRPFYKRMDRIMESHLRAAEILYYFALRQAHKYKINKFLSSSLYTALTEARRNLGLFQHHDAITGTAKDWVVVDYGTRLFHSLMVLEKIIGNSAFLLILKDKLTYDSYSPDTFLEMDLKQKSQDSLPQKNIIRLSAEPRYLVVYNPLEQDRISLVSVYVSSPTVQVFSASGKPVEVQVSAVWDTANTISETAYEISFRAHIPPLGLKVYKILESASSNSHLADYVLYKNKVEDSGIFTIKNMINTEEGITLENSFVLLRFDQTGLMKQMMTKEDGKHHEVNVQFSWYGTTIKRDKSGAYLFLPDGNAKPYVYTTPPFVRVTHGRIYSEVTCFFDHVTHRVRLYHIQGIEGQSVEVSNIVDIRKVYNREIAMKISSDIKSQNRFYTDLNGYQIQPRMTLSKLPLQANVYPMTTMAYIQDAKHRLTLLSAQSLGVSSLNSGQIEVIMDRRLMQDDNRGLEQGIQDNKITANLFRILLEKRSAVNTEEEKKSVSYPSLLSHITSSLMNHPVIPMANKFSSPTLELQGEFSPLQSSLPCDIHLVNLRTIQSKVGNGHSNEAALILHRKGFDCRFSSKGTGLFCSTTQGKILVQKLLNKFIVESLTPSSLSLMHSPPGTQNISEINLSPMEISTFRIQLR

[5] = target: T4, human liver α-fucosidase (Homo sapiens, UniProt P04066); test: Human liver glycosidase inhibition, α-fucosidase; conditions: for inhibition at 1000 µM: 1 mM concentration of inhibitor, hydrolysis of 4-umbelliferyl pyrranosides; for inhibition of α-fucosidase (in words): human liver glycosidases
T4 construct: from tissue; host or cells: human liver
T4 sequence (P04066 32-466): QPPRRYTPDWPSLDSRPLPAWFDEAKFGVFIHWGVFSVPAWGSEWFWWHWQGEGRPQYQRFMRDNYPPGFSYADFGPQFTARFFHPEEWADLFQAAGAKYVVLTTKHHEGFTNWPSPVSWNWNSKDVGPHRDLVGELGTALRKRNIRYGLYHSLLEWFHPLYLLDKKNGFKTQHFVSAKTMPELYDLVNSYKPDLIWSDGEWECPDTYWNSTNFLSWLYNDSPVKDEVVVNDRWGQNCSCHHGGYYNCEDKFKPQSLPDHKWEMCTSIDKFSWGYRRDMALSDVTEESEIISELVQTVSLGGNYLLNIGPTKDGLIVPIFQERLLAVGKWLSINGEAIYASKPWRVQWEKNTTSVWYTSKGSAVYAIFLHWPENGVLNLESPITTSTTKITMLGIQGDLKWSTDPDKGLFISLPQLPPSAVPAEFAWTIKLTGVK

| SMILES | inhibition at 1000 µM [1] [%] | inhibition at 1000 µM [2] [%] | inhibition of α-mannosidases (in words) [3] | inhibition at 1000 µM [4] [%] | inhibition at 1000 µM [5] [%] | inhibition of α-fucosidase (in words) [5] |
| --- | --- | --- | --- | --- | --- | --- |
| OC[C@@H]1N[C@H](CO)[C@@H](O)[C@@H](O)[C@@H]1O [6-Epi-homomannojirimycin, 2,6-dideoxy-2,6-imino-L-glycero-D-talo-heptitol] | 0 | 0 | did not inhibit any α-mannosidase | 0 | 96 | powerful inhibitors |
| OC[C@H]1NC[C@@H](O)[C@@H](O)[C@@H]1O [Deoxymannojirimycin, reference compound] | 58 | 21 |  | 45 | 91 | powerful inhibitors |
| OC[C@H]1N[C@H](CO)[C@@H](O)C(O)[C@@H]1O (stereo partly drawn) [Homomannojirimycin, 2,6-dideoxy-2,6-imino-D-glycero-D-talo-heptitol] | 49 | 30 |  | 56 | 29 | only a weak inhibitor |
